Data taken from the supplement of paper PMC7244745.
Where a name gives a salt, the structure may show the parent alone. ± gives the uncertainty stated by the source.

Legend:
[1] = system: Klebsiella pneumoniae ATCC 13882; assay: final OD630 (growth) after 24 h; higher = more bacterial growth; extreme values may be limits of the assay
Procedure: (§1)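 Klebsiella pneumoniae ATCC 13882 (start OD600 0.05) grown in M9U medium with 40 mM urea and phenol red plus inhibitor, in triplicate in 96-well plates. A557 and OD630 were read every 15 min for 24 h. Ureolysis was followed as the pH-related A557-A630: onset time, Gompertz-fit rate and final value. Growth was followed as OD630.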

[2] = system: Klebsiella pneumoniae ATCC 13882; assay: final pH-related absorbance (A557-A630) after 24 h (absorbance units); higher = more ureolysis; extreme values may be limits of the assay
Procedure: as §1

[3] = system: Klebsiella pneumoniae ATCC 13882; assay: onset of ureolytic pH increase; higher = more delayed ureolysis (inhibition)
Procedure: as §1

[4] = system: Klebsiella pneumoniae ATCC 13882; assay: rate of pH (A557-A630) increase, Gompertz fit (10^-4 s-1); higher = faster ureolysis; extreme values may be limits of the assay
Procedure: as §1

| SMILES | final OD630 ([1]; 0.1 mM) | final OD630 ([1]; 1 mM) | final OD630 ([1]; 10 mM) | final pH-related absorbance ([2]; 0.1 mM) | final pH-related absorbance ([2]; 1 mM) | final pH-related absorbance ([2]; 10 mM) | onset of ureolytic pH increase ([3]; 0.1 mM) [min] | onset of ureolytic pH increase ([3]; 1 mM) [min] | onset of ureolytic pH increase ([3]; 10 mM) [min] | rate of pH ([4]; 0.1 mM) | rate of pH ([4]; 1 mM) | rate of pH ([4]; 10 mM) | also measured |
| --- | --- | --- | --- | --- | --- | --- | --- | --- | --- | --- | --- | --- | --- |
| OB(O)c1ccc(Br)cc1 [4-bromophenylboronic acid] |  |  |  |  |  |  |  |  |  |  |  |  | final OD630 ([1]; 0.0017 mM): 0.451 ± 0.0066; final OD630 ([1]; 0.017 mM): 0; final OD630 ([1]; 0.173 mM): 0; final pH-related absorbance ([2]; 0.0017 mM): 0.12 ± 0.0018; final pH-related absorbance ([2]; 0.017 mM): 0.269 ± 0.042; final pH-related absorbance ([2]; 0.173 mM): 0; onset of ureolytic pH increase ([3]; 0.0017 mM): 745 ± 19 min; onset of ureolytic pH increase ([3]; 0.017 mM): 0 min; onset of ureolytic pH increase ([3]; 0.173 mM): > 1500 min; rate of pH ([4]; 0.0017 mM): 0.0566 ± 0.0019; rate of pH ([4]; 0.017 mM): 0.0294 ± 0.0052; rate of pH ([4]; 0.173 mM): 0 |
| CC(=O)NO [Acetohydroxamic acid] | 0.479 ± 0.016 | 0.356 ± 0.01 | 0.258 ± 0.004 | 0.437 ± 0.044 | 0.057 ± 0.006 | 0 | 507 ± 13 | 725 ± 9.2 | > 900 | 1.12 ± 0.047 | 1.31 ± 0.054 | 0 |  |
| CC(=O)NC(N)=S [Acetylthiourea] |  |  |  |  |  |  |  |  |  |  |  |  | final OD630 ([1]; 0.05 mM): 0.491 ± 0.011; final OD630 ([1]; 0.5 mM): 0.491 ± 0.004; final OD630 ([1]; 5 mM): 0.507 ± 0.021; final pH-related absorbance ([2]; 0.05 mM): 0.241 ± 0.011; final pH-related absorbance ([2]; 0.5 mM): 0.246 ± 0.002; final pH-related absorbance ([2]; 5 mM): 0.284 ± 0.05; onset of ureolytic pH increase ([3]; 0.05 mM): 428 ± 8.9 min; onset of ureolytic pH increase ([3]; 0.5 mM): 425.7 ± 3.9 min; onset of ureolytic pH increase ([3]; 5 mM): 415 ± 16 min; rate of pH ([4]; 0.05 mM): 2 ± 0.057; rate of pH ([4]; 0.5 mM): 2.03 ± 0.042; rate of pH ([4]; 5 mM): 2.62 ± 0.37 |
| O=[N+]([O-])[O-].[Ag+] [AgNO3] | 0 | 0 | 0 | 0 | 0 | 0 | > 1500 | > 1500 | > 1500 | 0 | 0 | 0 |  |
| NC(=O)NC1NC(=O)NC1=O (stereo not given) [Allantoin] |  |  |  |  |  |  |  |  |  |  |  |  | final OD630 ([1]; 0.033 mM): 0.525 ± 0.0093; final OD630 ([1]; 0.33 mM): 0.507 ± 0.0058; final OD630 ([1]; 3.33 mM): 0.495 ± 0.0081; final pH-related absorbance ([2]; 0.033 mM): 0.231 ± 0.0095; final pH-related absorbance ([2]; 0.33 mM): 0.216 ± 0.003; final pH-related absorbance ([2]; 3.33 mM): 0.222 ± 0.0053; onset of ureolytic pH increase ([3]; 0.033 mM): 577.5 ± 5.1 min; onset of ureolytic pH increase ([3]; 0.33 mM): 577.1 ± 4.4 min; onset of ureolytic pH increase ([3]; 3.33 mM): 602 ± 7 min; rate of pH ([4]; 0.033 mM): 1.66 ± 0.032; rate of pH ([4]; 0.33 mM): 1.718 ± 0.017; rate of pH ([4]; 3.33 mM): 1.68 ± 0.02 |
| C=CCNC(N)=S [Allylthiourea] | 0.417 ± 0.013 | 0.397 ± 0.015 | 0.366 ± 0.0047 | 0.159 ± 0.0052 | 0.154 ± 0.0052 | 0.135 ± 0.0034 | 563.5 ± 4.1 | 596 ± 29 | 776 ± 7.4 | 1.47 ± 0.046 | 1.454 ± 0.0015 | 1.383 ± 0.0037 |  |
| OB(O)O [Boric acid] | 0.437 ± 0.0082 | 0.432 ± 0.0018 | 0.297 ± 0.0064 | 0.409 ± 0.0087 | 0.418 ± 0.018 | 0 | 591 ± 6.2 | 616 ± 34 | > 900 | 1.62 ± 0.03 | 1.48 ± 0.2 | 0 |  |
| S=C=S [Carbon disulfide] |  |  |  |  |  |  |  |  |  |  |  |  | final OD630 ([1]; 0.0285 mM): 0.416 ± 0.0039; final OD630 ([1]; 0.285 mM): 0.428 ± 0.0051; final OD630 ([1]; 2.85 mM): 0.419 ± 0.0062; final pH-related absorbance ([2]; 0.0285 mM): 0.169 ± 0.0022; final pH-related absorbance ([2]; 0.285 mM): 0.175 ± 0.0006; final pH-related absorbance ([2]; 2.85 mM): 0.175 ± 0.0058; onset of ureolytic pH increase ([3]; 0.0285 mM): 615.5 ± 0.69 min; onset of ureolytic pH increase ([3]; 0.285 mM): 611.8 ± 2.6 min; onset of ureolytic pH increase ([3]; 2.85 mM): 614.4 ± 4.2 min; rate of pH ([4]; 0.0285 mM): 1.547 ± 0.011; rate of pH ([4]; 0.285 mM): 1.537 ± 0.0055; rate of pH ([4]; 2.85 mM): 1.561 ± 0.0093 |
| CN(CC(=O)O)C(=N)N [Creatine monohydrate] |  |  |  |  |  |  |  |  |  |  |  |  | final OD630 ([1]; 0.0026 mM): 0.503 ± 0.012; final OD630 ([1]; 0.026 mM): 0.496 ± 0.0032; final OD630 ([1]; 0.26 mM): 0.497 ± 0.0049; final pH-related absorbance ([2]; 0.0026 mM): 0.217 ± 0.0008; final pH-related absorbance ([2]; 0.026 mM): 0.22 ± 0.0025; final pH-related absorbance ([2]; 0.26 mM): 0.22 ± 0.0028; onset of ureolytic pH increase ([3]; 0.0026 mM): 572.2 ± 2.2 min; onset of ureolytic pH increase ([3]; 0.026 mM): 575 ± 8.8 min; onset of ureolytic pH increase ([3]; 0.26 mM): 565.1 ± 4.7 min; rate of pH ([4]; 0.0026 mM): 1.73 ± 0.023; rate of pH ([4]; 0.026 mM): 1.73 ± 0.059; rate of pH ([4]; 0.26 mM): 1.78 ± 0.032 |
| CN1CC(=O)NC1=N [Creatinine] | 0.505 ± 0.0042 | 0.495 ± 0.013 | 0.517 ± 0.0028 | 0.146 ± 0.0004 | 0.158 ± 0.0061 | 0.157 ± 0.005 | 575.3 ± 4.2 | 580.5 ± 1.7 | 575 ± 8.4 | 2.186 ± 0.011 | 2.17 ± 0.023 | 2.19 ± 0.038 |  |
| NCCS [Cysteamine hydrochloride] | 0.5 ± 0.0053 | 0.487 ± 0.0016 | 0.447 ± 0.0027 | 0.256 ± 0.0053 | 0.246 ± 0.0058 | 0.097 ± 0.0002 | 510 ± 6.2 | 607.5 ± 1.2 | 911.1 ± 1.1 | 1.44 ± 0.07 | 0.893 ± 0.012 | 0.736 ± 0.0043 |  |
| O=C(O)CN(CCN(CC(=O)O)CC(=O)O)CCN(CC(=O)O)CC(=O)O [Diethylenetriaminepentaacetic acid] |  |  |  |  |  |  |  |  |  |  |  |  | final OD630 ([1]; 0.004 mM): 0.439 ± 0.001; final OD630 ([1]; 0.036 mM): 0.311 ± 0.003; final OD630 ([1]; 0.364 mM): 0.21 ± 0.005; final pH-related absorbance ([2]; 0.004 mM): 0.196 ± 0.016; final pH-related absorbance ([2]; 0.036 mM): 0; final pH-related absorbance ([2]; 0.364 mM): 0; onset of ureolytic pH increase ([3]; 0.004 mM): 568 ± 11 min; onset of ureolytic pH increase ([3]; 0.036 mM): > 900 min; onset of ureolytic pH increase ([3]; 0.364 mM): > 900 min; rate of pH ([4]; 0.004 mM): 2.08 ± 0.049; rate of pH ([4]; 0.036 mM): 0; rate of pH ([4]; 0.364 mM): 0 |
| CC(=NO)C(C)=NO [Dimethylglyoxime] |  |  |  |  |  |  |  |  |  |  |  |  | final OD630 ([1]; 0.03 mM): 0.443 ± 0.007; final OD630 ([1]; 0.3 mM): 0.377 ± 0.017; final OD630 ([1]; 3.01 mM): 0; final pH-related absorbance ([2]; 0.03 mM): 0.183 ± 0.0026; final pH-related absorbance ([2]; 0.3 mM): 0.142 ± 0.032; final pH-related absorbance ([2]; 3.01 mM): 0.466 ± 0.023; onset of ureolytic pH increase ([3]; 0.03 mM): 573.9 ± 0.72 min; onset of ureolytic pH increase ([3]; 0.3 mM): 771 ± 36 min; onset of ureolytic pH increase ([3]; 3.01 mM): 0 min; rate of pH ([4]; 0.03 mM): 2.093 ± 0.018; rate of pH ([4]; 0.3 mM): 1.96 ± 0.3; rate of pH ([4]; 3.01 mM): 0.0904 ± 0.0046 |
| C=C(CC)C(=O)c1ccc(OCC(=O)O)c(Cl)c1Cl [Ethacrynic acid] | 0.437 ± 0.0002 | 0.44 ± 0.0048 | 0 | 0.139 ± 0.0023 | 0.128 ± 0.018 | 0.294 ± 0.0059 | 697.4 ± 3.6 | 754 ± 100 | 0 | 1.57 ± 0.073 | 1.49 ± 0.037 | 0.033 ± 0.0006 |  |
| CC(O)(P(=O)(O)O)P(=O)(O)O [Etidronic acid monohydrate] | 0.432 ± 0.0054 | 0.443 ± 0.0026 | 0 | 0.323 ± 0.0087 | 0.28 ± 0.005 | 0 | 673.9 ± 2.3 | 672.1 ± 2.5 | > 900 | 1.63 ± 0.035 | 1.597 ± 0.013 | 0 |  |
| NC=O [Formamide] | 0.513 ± 0.0092 | 0.512 ± 0.0096 | 0.513 ± 0.008 | 0.168 ± 0.021 | 0.172 ± 0.027 | 0.165 ± 0.021 | 550 ± 22 | 560 ± 15 | 572 ± 7.5 | 2.01 ± 0.1 | 2.24 ± 0.1 | 2.188 ± 0.02 |  |
| O=C(O)c1cc(O)c(O)c(O)c1 [Gallic acid monohydrate] |  |  |  |  |  |  |  |  |  |  |  |  | final OD630 ([1]; 0.056 mM): 0.454 ± 0.007; final OD630 ([1]; 0.56 mM): 0.45 ± 0.003; final pH-related absorbance ([2]; 0.056 mM): 0.19 ± 0.0003; final pH-related absorbance ([2]; 0.56 mM): 0.191 ± 0.028; onset of ureolytic pH increase ([3]; 0.056 mM): 562.9 ± 3.7 min; onset of ureolytic pH increase ([3]; 0.56 mM): 617 ± 18 min; rate of pH ([4]; 0.056 mM): 2.0688 ± 0.0018; rate of pH ([4]; 0.56 mM): 1.8 ± 0.028 |
